Where two headings read alike, the source gives them in different places.
How the values were obtained:
[1] = Plasma protein binding of brigatinib by rapid equilibrium dialysis of participants' plasma samples; type: in vitro ADME, human; details: for fraction unbound: human, plasma, oral, 90 mg, pooled 2, 8, 24 h postdose
Protocol: Blood samples were collected before brigatinib administration (predose) and at 0.5, 1, 1.5, 2, 2.5, 3, 4, 6, 8, 12, 24, 36, 48, 72, 96, 120, 144, 168, and 192 hours following brigatinib administration to measure brigatinib plasma concentrations. Samples to assess brigatinib plasma protein binding were collected at 2, 8, and 24 hours postdose.
Free fractions of brigatinib in plasma samples were determined as previously reported. Briefly, free brigatinib was separated from protein-bound brigatinib by rapid equilibrium dialysis of plasma samples against warm (37° C) phosphate-buffered saline using the Thermo Scientific Single-Use Rapid Equilibrium Dialysis kit (Thermo Fisher Scientific, Waltham, MA) according to the manufacturer’s specifications. […] After incubation, samples were analyzed for brigatinib concentrations using liquid chromatography with tandem mass spectrometry as previously reported using a dual-range assay with a lower limit of quantitation of 0.100 ng/mL and an upper limit of quantitation of […].
The PK-evaluable population was defined as participants who received the single dose of brigatinib, had no major protocol deviations that affected the PK analyses, and had sufficient data to calculate PK parameters. Individual participant brigatinib plasma concentration-time profiles were analyzed via noncompartmental analysis using Phoenix WinNonLin version 6.4 (Certara, Inc., Princeton, NJ) to calculate plasma PK parameters. Plasma PK parameters calculated for brigatinib included maximum observed plasma concentration (Cmax), time to first maximum observed plasma concentration (Tmax), area under the plasma concentration-time curve from time 0 to the time of the last measurable concentration (AUC0−last), area under the plasma concentration-time curve from time 0 to infinity (AUC0−∞), terminal elimination half-life (t1/2), apparent oral clearance (CL/F), and apparent volume of distribution during the terminal disposition phase (Vz/F). The fraction of unbound brigatinib in plasma was calculated using the following formula: % free (unbound) = [free brigatinib concentration measured in buffer after dialysis] / [total brigatinib concentration measured in plasma] × 100. Unbound brigatinib PK parameters were derived from the following formula (except for the unbound CL/F and unbound Vz/F, which were calculated as total CL/F or total Vz/F divided by the individual participant’s overall mean fraction unbound): unbound PK parameter = (PK parameter based on total concentrations) × (individual participant’s overall mean fraction unbound value).

[2] = Safety and adverse event monitoring after a single 90-mg dose; type: in vivo, human
Protocol: All enrolled participants who received brigatinib were included in the safety population. Adverse event (AE) monitoring occurred throughout the study. Physical examination was conducted at screening with additional symptom-directed physical examinations performed at the investigator’s discretion on study Days −1 and 9. Height, weight, and BMI were recorded at screening. Vital signs were recorded at screening; on Day −1; predose and at 0.5, 1, 2, 3, 4, 6, 8, 12, 24, 36, 48, 72, 96, 120, 144, and 168 hours postdose; and on Day 9. Electrocardiograms were conducted at screening, on Day −1, predose and at 3 and 48 hours postdose, and on Day 9. Clinical laboratory evaluations were performed at screening and on Days −1 and 9 and were reviewed by the investigator for clinical significance.

[3] = tested on: TKI-naive ALK+ NSCLC; design: method as in PMID 34537440; details: 95% CI 0.35–0.66; P < 0.0001; cited from earlier work
[4] = design: method as in PMID 27836716, PMID 29915924; details: cited from earlier work
[5] = tested on: CYP2C8; design: method as in PMID 31287236; details: cited from earlier work
[6] = tested on: CYP3A; design: method as in PMID 31287236; details: cited from earlier work
[7] = design: method as in PMID 32816246; details: single oral 180 mg [14C]-brigatinib; cited from earlier work

SMILES: COc1cc(N2CCC(N3CCN(C)CC3)CC2)ccc1Nc1ncc(Cl)c(Nc2ccccc2P(C)(C)=O)n1 [brigatinib]
- concentration dependence of plasma protein binding ([1]; 2, 8 and 24 h postdose within each hepatic function group): not concentration-dependent
- mean fraction unbound, Child-Pugh C relative to healthy participants ([1]; Child-Pugh C vs healthy participants): 2.7 fold
- fraction unbound ([1]; Child-Pugh A, mild hepatic impairment (n=6), read-out: mean fraction unbound (free) in plasma): 0.111
- fraction unbound ([1]; Child-Pugh A, read-out: pooled mean ± SD fraction unbound (converted)): 0.111
- fraction unbound ([1]; Child-Pugh B, moderate hepatic impairment (n=6), read-out: mean fraction unbound (free) in plasma): 0.108
- fraction unbound ([1]; Child-Pugh B, read-out: pooled mean ± SD fraction unbound (converted)): 0.108
- fraction unbound ([1]; Child-Pugh C, severe hepatic impairment (n=6), read-out: mean fraction unbound (free) in plasma): 0.231
- fraction unbound ([1]; Child-Pugh C, read-out: pooled mean ± SD fraction unbound (converted)): 0.231
- fraction unbound ([1]; healthy participants, normal hepatic function (n=9), read-out: mean fraction unbound (free) in plasma): 0.085
- fraction unbound ([1]; healthy participants, read-out: pooled mean ± SD fraction unbound (converted)): 0.085
- number of TEAEs ([2]; Child-Pugh A group): 2 events
- participants with one or more TEAEs ([2]; Child-Pugh A group (n=6)): 2 participants
- number of TEAEs ([2]; Child-Pugh B group): 13 events
- participants with moderate TEAEs possibly related to the study drug ([2]; Child-Pugh B group): Two
- participants with one or more TEAEs ([2]; Child-Pugh B group (n=6)): 4 participants
- number of TEAEs ([2]; Child-Pugh C group): 2 events
- participants with one or more TEAEs ([2]; Child-Pugh C group (n=6)): 2 participants
- participants with one or more treatment-emergent adverse events (TEAEs) ([2]; all 27 study participants, single 90 mg): 13 participants
- participants with constipation ([2]; all participants): 2 participants
- participants with dyspnea ([2]; all participants): 2 participants
- participants with headache ([2]; all participants): 4 participants
- participants with hypertension ([2]; all participants): 2 participants
- participants with nausea ([2]; all participants): 2 participants
- changes in laboratory values or electrocardiogram measurements ([2]; during the study): No clinically significant changes
- discontinuation due to an AE ([2]; during the study): no participants discontinued
- serious AEs ([2]; during the study): no serious AEs
- number of TEAEs ([2]; healthy participant group): 5 events
- participants with one or more TEAEs ([2]; healthy participant group (n=9)): 5 participants
- tolerability ([2]; single 90-mg dose, healthy participants and participants with hepatic impairment): well tolerated
- PFS hazard ratio, brigatinib compared with crizotinib [3]: 0.48
- mean plasma terminal elimination half-life [4]: approximately 25 hours
- effect of a strong CYP2C8 inhibitor on brigatinib systemic exposure [5]: no clinically relevant effect
- decrease of AUC0−∞ with the strong CYP3A inducer rifampicin [6]: 80%
- increase of AUC0−∞ with the strong CYP3A inhibitor itraconazole [6]: 101%
- administered dose recovered in the feces [7]: approximately 65%
- administered dose recovered in the urine [7]: 25%
- fecal recovery as unchanged brigatinib [7]: 41%
- urinary recovery as unchanged brigatinib [7]: 86%

From PMC10289985, “Brigatinib pharmacokinetics in patients with chronic hepatic impairment” (Investigational New Drugs, 2023)
